Assays:
[1] = target: T1, bovine multidrug resistance protein 1 (bMRP1) (Bos taurus, UniProt Q8HXQ5, DEL868-879); assay: smFRET dose response of IF1 state occupancy (purified protein); also stimulates ATPase activity; assay type: binding
T1 construct: gene ABCC1; purified WT bMRP1 with S6 peptide replacing residues 868–879 and A1 peptide after V1530, Cy3/LD655-labeled

[2] = target: T2, bovine multidrug resistance protein 1 (bMRP1) (Bos taurus, UniProt Q8HXQ5); assay: biochemical
T2 construct: gene ABCC1
T2 sequence (Q8HXQ5 whole entry): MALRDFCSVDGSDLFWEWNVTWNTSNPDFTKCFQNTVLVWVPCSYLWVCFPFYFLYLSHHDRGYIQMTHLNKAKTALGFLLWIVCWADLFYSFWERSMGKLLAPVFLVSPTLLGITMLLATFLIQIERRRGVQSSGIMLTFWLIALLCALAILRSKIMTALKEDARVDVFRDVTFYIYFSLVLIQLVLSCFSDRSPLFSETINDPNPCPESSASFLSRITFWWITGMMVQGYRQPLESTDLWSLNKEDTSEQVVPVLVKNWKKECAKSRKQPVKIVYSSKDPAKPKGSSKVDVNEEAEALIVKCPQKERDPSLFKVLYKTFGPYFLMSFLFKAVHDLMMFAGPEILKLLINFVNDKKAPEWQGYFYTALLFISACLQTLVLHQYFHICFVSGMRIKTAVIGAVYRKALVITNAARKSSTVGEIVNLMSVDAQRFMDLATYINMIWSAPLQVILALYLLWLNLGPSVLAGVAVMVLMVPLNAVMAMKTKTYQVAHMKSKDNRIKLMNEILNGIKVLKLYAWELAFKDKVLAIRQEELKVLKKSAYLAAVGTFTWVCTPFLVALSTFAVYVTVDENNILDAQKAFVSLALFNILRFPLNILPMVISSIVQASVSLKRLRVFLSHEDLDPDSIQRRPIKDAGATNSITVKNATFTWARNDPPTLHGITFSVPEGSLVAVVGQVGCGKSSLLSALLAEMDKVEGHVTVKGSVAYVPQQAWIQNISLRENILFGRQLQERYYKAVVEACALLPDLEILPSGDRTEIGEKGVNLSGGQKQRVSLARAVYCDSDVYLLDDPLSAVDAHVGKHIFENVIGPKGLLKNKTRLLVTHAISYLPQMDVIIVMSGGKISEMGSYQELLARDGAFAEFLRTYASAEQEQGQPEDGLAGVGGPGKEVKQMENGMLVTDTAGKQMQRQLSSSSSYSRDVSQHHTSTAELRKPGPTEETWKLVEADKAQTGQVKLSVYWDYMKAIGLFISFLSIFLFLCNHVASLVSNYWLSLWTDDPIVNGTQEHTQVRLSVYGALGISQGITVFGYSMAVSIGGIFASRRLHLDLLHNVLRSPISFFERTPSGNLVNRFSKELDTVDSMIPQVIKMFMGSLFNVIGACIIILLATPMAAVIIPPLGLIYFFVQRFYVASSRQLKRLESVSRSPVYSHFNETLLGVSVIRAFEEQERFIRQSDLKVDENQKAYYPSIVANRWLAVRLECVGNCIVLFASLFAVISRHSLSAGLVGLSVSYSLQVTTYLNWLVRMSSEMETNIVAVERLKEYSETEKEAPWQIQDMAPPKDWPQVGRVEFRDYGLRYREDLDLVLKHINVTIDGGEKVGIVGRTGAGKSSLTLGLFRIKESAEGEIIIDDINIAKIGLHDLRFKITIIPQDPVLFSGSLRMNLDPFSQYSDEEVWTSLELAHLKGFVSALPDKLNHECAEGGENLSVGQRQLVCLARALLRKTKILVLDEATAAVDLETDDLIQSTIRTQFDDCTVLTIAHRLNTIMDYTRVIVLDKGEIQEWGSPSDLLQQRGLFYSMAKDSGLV

T1 sequence (Q8HXQ5 1-867, stated change not applied): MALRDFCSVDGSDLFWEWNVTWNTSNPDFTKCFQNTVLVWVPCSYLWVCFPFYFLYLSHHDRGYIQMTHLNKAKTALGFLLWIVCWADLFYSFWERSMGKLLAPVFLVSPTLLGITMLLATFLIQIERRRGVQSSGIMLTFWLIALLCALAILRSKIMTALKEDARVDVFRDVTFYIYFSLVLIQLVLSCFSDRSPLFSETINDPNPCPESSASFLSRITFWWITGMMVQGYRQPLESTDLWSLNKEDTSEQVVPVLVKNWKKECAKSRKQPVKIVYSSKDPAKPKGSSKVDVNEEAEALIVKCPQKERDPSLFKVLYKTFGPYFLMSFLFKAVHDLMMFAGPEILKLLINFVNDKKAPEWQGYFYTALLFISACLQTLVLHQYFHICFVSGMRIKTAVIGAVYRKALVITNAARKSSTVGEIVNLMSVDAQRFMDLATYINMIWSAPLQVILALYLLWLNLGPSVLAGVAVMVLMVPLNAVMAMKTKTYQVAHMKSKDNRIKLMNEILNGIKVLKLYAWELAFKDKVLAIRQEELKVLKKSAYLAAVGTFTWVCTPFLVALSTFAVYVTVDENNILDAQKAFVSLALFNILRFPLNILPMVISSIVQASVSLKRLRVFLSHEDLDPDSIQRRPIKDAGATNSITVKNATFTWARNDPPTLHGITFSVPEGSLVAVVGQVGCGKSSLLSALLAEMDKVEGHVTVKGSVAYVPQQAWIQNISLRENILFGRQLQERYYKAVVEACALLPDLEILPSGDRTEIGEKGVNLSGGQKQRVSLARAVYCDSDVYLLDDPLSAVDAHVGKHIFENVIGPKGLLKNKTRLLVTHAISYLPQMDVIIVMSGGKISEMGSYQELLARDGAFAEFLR
T1 sequence (Q8HXQ5 880-1530, stated change not applied): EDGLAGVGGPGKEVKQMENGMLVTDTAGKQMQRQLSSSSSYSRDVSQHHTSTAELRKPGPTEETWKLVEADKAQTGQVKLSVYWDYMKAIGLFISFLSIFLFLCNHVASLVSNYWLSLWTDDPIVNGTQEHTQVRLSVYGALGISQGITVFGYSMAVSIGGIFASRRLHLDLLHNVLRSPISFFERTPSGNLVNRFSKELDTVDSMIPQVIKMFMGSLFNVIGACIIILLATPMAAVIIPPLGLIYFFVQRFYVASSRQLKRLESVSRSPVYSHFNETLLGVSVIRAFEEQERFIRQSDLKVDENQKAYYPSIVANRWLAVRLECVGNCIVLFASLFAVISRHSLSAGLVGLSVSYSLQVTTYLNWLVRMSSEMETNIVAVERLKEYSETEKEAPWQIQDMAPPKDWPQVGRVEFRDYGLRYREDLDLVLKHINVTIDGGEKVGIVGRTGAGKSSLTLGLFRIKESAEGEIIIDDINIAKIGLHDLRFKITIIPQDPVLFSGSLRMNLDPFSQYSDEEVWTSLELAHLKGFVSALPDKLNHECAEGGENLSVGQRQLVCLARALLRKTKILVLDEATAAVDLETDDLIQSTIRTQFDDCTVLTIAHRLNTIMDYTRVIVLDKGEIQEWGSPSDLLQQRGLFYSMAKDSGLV

`CCCCC/C=C\C\C=C/C=C/C=C/[C@@H](SC[C@H](NC(=O)CC[C@H](N)C(=O)O)C(=O)NCC(=O)O)[C@@H](O)CCCC(=O)O` [Leukotriene C4] showed an EC50 [1] of 0.32 ± 0.17 µM.
Work on `Nc1ncnc2c1ncn2[C@@H]1O[C@H](COP(=O)(O)OP(=O)(O)OP(=O)(O)O)[C@@H](O)[C@H]1O` [ATP] yielded an EC50 [2] of 50 ± 20 µM.

From paper PMC7253176, “Characterization of the kinetic cycle of an ABC transporter by single-molecule and cryo-EM analyses” (eLife, 2020)
